{"source": "patent US20240368232A1", "about": "“ANTIVIRAL LARAZOTIDE DERIVATIVES” (priority 2021, published 2024)", "key": {"[1]": {"system": "TK^+ VZV strain OKA", "settings": "read-out: Antiviral activity EC50 TK^+ VZV strain OKA; VZV in HEL cells; plaque formation reduced by 50%; 20 PFU"}, "[2]": {"system": "cytomegalovirus (HCMV) AD-169 strain", "settings": "read-out: Antiviral activity EC50 AD-169 strain; HCMV in HEL cells; plaque formation reduced by 50%; 100 PFU"}, "[3]": {"system": "TK^− VZV strain 07-1", "settings": "read-out: Antiviral activity EC50 TK^− VZV strain 07-1.; VZV in HEL cells; plaque formation reduced by 50%; 20 PFU"}, "[4]": {"test": "in vitro", "settings": "African green monkey"}, "[5]": {"target": "T1, SARS-COV-2 M^pro (3264-3569aa) (Severe acute respiratory syndrome coronavirus 2, UniProt P0DTD1)", "T1 construct": "SARS-COV-2 M^pro (3264-3569aa); purchased Proteros WTH_20_1", "test": "FRET assay for TRIP on SARS-COV-2 main protease", "assay_type": "biochemical"}, "[6]": {"system": "cytomegalovirus (HCMV) Davis strain", "settings": "read-out: Antiviral activity EC50 Davis strain; HCMV in HEL cells; plaque formation reduced by 50%; 100 PFU"}, "[7]": {"system": "human embryonic lung (HEL) cells", "test": "Cytotoxicity, cell morphology (MCC), HEL cells", "assay_type": "cell-based"}, "[8]": {"system": "SARS-COV-2 1074 # 2 strain", "test": "microbe, parasite or virus in culture", "settings": "Severe acute respiratory syndrome coronavirus 2, Vero, read-out: Antiviral activity EC50 1074 # 2 strain Vero cells"}, "[9]": {"system": "SARS-COV-2 1074 # 2 strain"}, "[10]": {"system": "SARS-COV-2 UK (NVDBB) strain", "test": "microbe, parasite or virus in culture", "settings": "Severe acute respiratory syndrome coronavirus 2, Vero, read-out: Antiviral activity EC50 UK (NVDBB) strain Vero cells"}, "[11]": {"system": "Vero cells"}, "[12]": {"system": "cytomegalovirus (HCMV) AD-169 strain", "test": "microbe, parasite or virus in culture", "settings": "Human betaherpesvirus 5, AD169, HEL, read-out: Antiviral activity EC50 AD-169 strain, HCMV in HEL cells; plaque formation reduced by 50%; 100 PFU"}, "[13]": {"system": "TK^+ VZV strain OKA", "test": "microbe, parasite or virus in culture", "settings": "Human alphaherpesvirus 3, HEL, read-out: Antiviral activity EC50 TK^+ VZV strain OKA, VZV in HEL cells; plaque formation reduced by 50%; 20 PFU"}, "[14]": {"system": "TK^− VZV strain 07-1", "test": "microbe, parasite or virus in culture", "settings": "Human alphaherpesvirus 3, HEL, read-out: Antiviral activity EC50 TK^− VZV strain 07-1., VZV in HEL cells; plaque formation reduced by 50%; 20 PFU"}, "[15]": {"target": "M^pro enzyme (Severe acute respiratory syndrome coronavirus 2, UniProt P0DTD1)", "settings": "MM-GBSA, literature Di Micco et al. 2021; cited from earlier work"}, "[16]": {"system": "SARS-COV-2 UK (NVDBB) strain"}, "[17]": {"system": "Vero cells", "assay_type": "cell-based"}}, "note": "Where “and” joins values, the source holds several entries; their conditions need not be identical. Equal entries are not always repeated. Where two headings read alike, the source gives them in different places. Square brackets hold non-standard residues; d marks the D form. Peptide text beside a SMILES is read from it. * marks the point of attachment. ξ: configuration not given here. ξTic = O=C(O)C1Cc2ccccc2CN1; ξY = NC(Cc1ccc(O)cc1)C(=O)O; Heptanoyl = CCCCCCC(=O)*; Boc = CC(C)(C)OC(=O)*"}
{"molecule": "CC(=O)NCC(=O)N[C@H](Cc1ccccc1)C(=O)N[C@H](C=O)Cc1c[nH]cn1", "note": "[TRIP 5] (Ac-Gly-[dF]-His-aldehyde)", "values": [{"measurement": "EC50", "setting": "[1]", "result": "> 100", "unit": "µM"}, {"measurement": "EC50", "setting": "[2]", "result": "> 20", "unit": "µM"}, {"measurement": "EC50", "setting": "[3]", "result": "> 100", "unit": "µM"}, {"measurement": "CC50", "setting": "[4]", "result": "> 100", "unit": "µM"}, {"measurement": "IC50", "setting": "[5]", "result": "2.51 ± 0.24", "unit": "µM"}, {"measurement": "Kd", "setting": "[5]", "result": "1.26 ± 0.12", "unit": "µM"}, {"measurement": "EC50", "setting": "[6]", "result": "> 100", "unit": "µM"}, {"measurement": "Cytotoxicity Cell morphology (MCC)", "setting": "[7]; Table 3 (HCMV experiment)", "result": 100, "unit": "μM"}, {"measurement": "Cytotoxicity Cell morphology (MCC)", "setting": "[7]; Table 4 (VZV experiment)", "result": ">100", "unit": "μM"}]}
{"molecule": "CCC(CC)COC(=O)[C@H](C)N[P@](=O)(OC[C@H]1O[C@@](C#N)(c2ccc3c(N)ncnn23)[C@H](O)[C@@H]1O)Oc1ccccc1", "note": "[Remdesivir]", "values": [{"measurement": "EC50", "setting": "[8]", "result": 1.01, "unit": "µM"}, {"measurement": "EC50", "setting": "[9]; read-out: Antiviral activity EC50 1074 # 2 strain Vero cells", "result": 1.17, "unit": "µM"}, {"measurement": "EC50", "setting": "[10]", "result": 0.19, "unit": "µM"}, {"measurement": "CC50", "setting": "[11]; African green monkey", "result": 59.1, "unit": "µM"}, {"measurement": "CC50", "setting": "[4]; Cytotoxicity Cell growth (CC50)", "result": "> 80", "unit": "µM"}]}
{"molecule": "Nc1ccn(C[C@@H](CO)OCP(=O)(O)O)c(=O)n1", "note": "[Cidofovir (CDV), Cidofovir, reference compound]", "values": [{"measurement": "EC50", "setting": "[2]", "result": 1.08, "unit": "µM"}, {"measurement": "Cytotoxicity Cell morphology (MCC)", "setting": "[7]; Table 3 (HCMV experiment)", "result": 317, "unit": "μM"}, {"measurement": "EC50", "setting": "[12]", "result": 1.39, "unit": "µM"}]}
{"molecule": "O=c1[nH]c(=O)n([C@H]2C[C@H](O)[C@@H](CO)O2)cc1/C=C/Br", "note": "[Brivudine (BVDU), Brivudine, reference compound]", "values": [{"measurement": "EC50", "setting": "[13]", "result": 0.27, "unit": "µM"}, {"measurement": "EC50", "setting": "[1]", "result": 0.17, "unit": "µM"}, {"measurement": "EC50", "setting": "[14]", "result": 5.89, "unit": "µM"}, {"measurement": "EC50", "setting": "[3]", "result": 4.53, "unit": "µM"}, {"measurement": "Cytotoxicity Cell morphology (MCC)", "setting": "[7]; Table 4 (VZV experiment)", "result": ">300.3", "unit": "μM"}]}
{"molecule": "CCCCCCC(=O)NCC(=O)N[C@H](Cc1ccccc1)C(=O)N[C@H](C=O)Cc1c[nH]cn1", "note": "[TRIP 44] (Heptanoyl-Gly-[dF]-His-aldehyde)", "values": [{"measurement": "EC50", "setting": "[1]", "result": "> 100", "unit": "µM"}, {"measurement": "EC50", "setting": "[2]", "result": "> 20", "unit": "µM"}, {"measurement": "EC50", "setting": "[3]", "result": "> 100", "unit": "µM"}, {"measurement": "CC50", "setting": "[4]", "result": "> 100", "unit": "µM"}, {"measurement": "EC50", "setting": "[6]", "result": "> 100", "unit": "µM"}, {"measurement": "Cytotoxicity Cell morphology (MCC)", "setting": "[7]; Table 3 (HCMV experiment)", "result": 100, "unit": "μM"}, {"measurement": "Cytotoxicity Cell morphology (MCC)", "setting": "[7]; Table 4 (VZV experiment)", "result": ">100", "unit": "μM"}]}
{"molecule": "larazotide acetate [AT1001 acetate]", "values": [{"measurement": "docking in the catalytic domain of the M^pro enzyme", "setting": "[15]", "result": "docks extremely well"}]}
{"molecule": "CC(=O)NCC(=O)N[C@@H](Cc1ccccc1)C(=O)N[C@H](Cc1c[nH]cn1)C(=O)NCC=O", "note": "[TRIP 42] (Ac-GF[dH]G-aldehyde)", "values": [{"measurement": "IC50", "setting": "[5]", "result": "> 425", "unit": "µM"}]}
{"molecule": "O=CCNC(=O)[C@@H](Cc1c[nH]cn1)NC(=O)[C@H](Cc1c[nH]cn1)NC(=O)C1Cc2ccccc2CN1", "note": "(stereo partly drawn) [TRIP 41] (H-[ξTic]H[dH]G-aldehyde)", "values": [{"measurement": "IC50", "setting": "[5]", "result": "> 425", "unit": "µM"}]}
{"molecule": "NC(=O)c1nc(F)cnc1O", "note": "[T-705, reference compound]", "values": [{"measurement": "Antiviral activity EC50 1074 # 2 strain Vero cells", "setting": "[9]", "result": "76.15 µg/mL and 81.79 µg/mL"}, {"measurement": "Antiviral activity EC50 UK (NVDBB) strain Vero cells", "setting": "[16]", "result": 23.39, "unit": "µg/mL"}, {"measurement": "Cytotoxicity Cell growth (CC50)", "setting": "[11]", "result": ">200", "unit": "µg/mL"}, {"measurement": "Cytotoxicity Cell morphology (MCC)", "setting": "[17]", "result": ">200", "unit": "μg/ml"}]}
{"molecule": "CC(=O)NCC(=O)NC(Cc1ccc(O)cc1)C(=O)N[C@H](C=O)Cc1c[nH]cn1", "note": "(stereo partly drawn) [TRIP 23] (Ac-Gly-[ξY]-His-aldehyde)", "values": [{"measurement": "IC50", "setting": "[5]", "result": 198, "unit": "µM"}]}
{"molecule": "CC(C)(C)OC(=O)NCC(=O)N[C@H](Cc1ccccc1)C(=O)N[C@H](C=O)Cc1c[nH]cn1", "note": "[TRIP 43] (Boc-Gly-[dF]-His-aldehyde)", "values": [{"measurement": "EC50", "setting": "[1]", "result": "> 100", "unit": "µM"}, {"measurement": "EC50", "setting": "[2]", "result": "> 20", "unit": "µM"}, {"measurement": "EC50", "setting": "[3]", "result": "> 100", "unit": "µM"}, {"measurement": "CC50", "setting": "[4]", "result": "> 100", "unit": "µM"}, {"measurement": "EC50", "setting": "[6]", "result": "> 100", "unit": "µM"}, {"measurement": "Cytotoxicity Cell morphology (MCC)", "setting": "[7]; Table 3 (HCMV experiment)", "result": 100, "unit": "μM"}, {"measurement": "Cytotoxicity Cell morphology (MCC)", "setting": "[7]; Table 4 (VZV experiment)", "result": ">100", "unit": "μM"}]}
{"molecule": "CC(C)C[C@H](C=O)NC(=O)[C@H](Cc1ccccc1)NC(=O)C1Cc2ccccc2CN1", "note": "(stereo partly drawn) [TRIP 3] (H-[ξTic]-Phe-[dL]-aldehyde)", "values": [{"measurement": "IC50", "setting": "[5]", "result": "> 425", "unit": "µM"}]}
